Data as given in patent US4892870A, “Oxaza heterocycles and pharmaceutical compositions containing same” (Biofor, Ltd., priority 1988, dated 1990).

Tested on: not given
Test: not given
Conditions: cited from G. Moore, U.S. Pat. No. 4,337,345; cited from earlier work

Row | Structure (SMILES) | anti-inflammatory activity
1 | CC(C)(C)c1cc(S(=O)(=O)c2ccccc2)cc(C(C)(C)C)c1O [2,6-di-(tert-butyl)-4-(phenylsulfonyl)phenol] | absence of anti-inflammatory activity
2 | CC(C)(C)c1cccc(C(C)(C)C)c1O [2,6-di-(tert-butyl)phenol] | absence of anti-inflammatory activity
3 | CCCCCCCCc1cc(C(C)(C)C)c(O)c(C(C)(C)C)c1 [4-n-octyl-2,6-di-(tert-butyl)phenol] | absence of anti-inflammatory activity
4 | CC(C)(C)c1cc(C(N)=O)cc(C(C)(C)C)c1O [4-carboxamido-2,6-di-(tert-butyl)phenol] | absence of anti-inflammatory activity
5 | Cc1cc(C(C)(C)C)c(O)c(C(C)(C)C)c1 [3,5-di(tert-butyl)-4-hydroxytoluene] | little or no value as an anti-inflammatory agent
6 | CC(C)(C)c1cc(C(=O)c2ccccc2Cl)cc(C(C)(C)C)c1O [4-(2-chlorobenzoyl)-2,6-di-(tert-butyl)phenol] | absence of anti-inflammatory activity
7 | CC(C)(C)c1cc(C(=O)c2cc(C(=O)O)ccc2Cl)cc(C(C)(C)C)c1O [4-(5-carboxy-2-chlorobenzoyl)-2,6-di-(tert-butyl)phenol] | absence of anti-inflammatory activity
8 | CC(=O)c1cc(C(C)(C)C)c(O)c(C(C)(C)C)c1 [4-acetyl-2,6-(di-tert-butyl)phenol] | absence of anti-inflammatory activity

Tested on: paw edema
Test: Adjuvant Arthritis Assay; Established (chronic anti-inflammatory and antiarthritic)
Type: in vivo, rats
Conditions: Rattus norvegicus, 552 h, oral once daily on days 19-22, paw volumes day 23
Description: In this assay the differences between dosed and non-dosed paw values were determined postadjuvant. Chronic anti-inflammatory and antiarthritic activity were evaluated using the method described by S. Wong in "Tolmetin: A New Non-steroidal Anti-inflammatory Agent" Editor: John R. Ward, Excerpta Medica, N.J. pp. 1-27 (1976). On day 19 post adjuvant all rats were evenly distributed according to edema size. Doses of treatment or vehicle were administered orally to all rats once daily on days 19-22 inclusive. Final paw volumes were determined on day 23 post adjuvant.

Row | Structure (SMILES) | ED50 [mg/kg]
9 | CN1OCC(=Cc2cc(C(C)(C)C)c(O)c(C(C)(C)C)c2)C1=O [Example 1, 4-(3,5-Di-tert-Butyl-4-Hydroxybenzylidene)-2-Methyl-3-Isoxazolidinone; E and Z Isomers] | 44
10 | CN1OCCC(=Cc2cc(C(C)(C)C)c(O)c(C(C)(C)C)c2)C1=O [Example 2, Dihydro-4-(3,5-Di-tert-Butyl-4-Hydroxybenzylidene)-2-Methyl-2H-1,2-Oxazin-3(4H)-one] | 8
11 | COc1ccc2cc([C@H](C)C(=O)O)ccc2c1 [NAPROXEN, reference compound] | 28

Tested on: acetylcholine writhing
Test: Acetylcholine Writhing Assay (analgesic)
Type: in vivo, male CD-1 mice
Conditions: Mus musculus; oral, 45 min before intraperitoneal acetylcholine; writhes counted 10 minutes
Description: Analgesic: The "Acetylcholine Writhing Assay" (ACH) of collier et al [Nature: Vol. 204: page 1316 (1964)] was employed. In this study the test compounds were administered orally to mice and 45 minutes later the mice were injected with acetylcholine. The frequency of writhing was counted in each animal and the response elicited in the drug-treated mice was compared with the response of those given acetylcholine alone.
Analgesic activity was evaluated via the mouse acetylcholine writhing test using a modification of the procedure described by Collier, et al in Nature (New Biol.) Vol. 204; page 1316 (1964) and Br. J. Pharmacol, Chemother, Vol. 32: page 295 (1968). Each test group consisted of ten male CD-1 mice (Charles River Laboratories) weighing 18-28 grams each. Test compounds suspended in a mixture of 0.25% methylcellulose solution […] were administered orally by gavage and fort five minutes later the mice were injected intraperitoneally with acetylcholine (0.55 mg/ml in 0.25% methylcellulose). The number of writhes in each group of mice were counted for 10 minutes immediately following the injection of acetylcholine and the percent inhibition was calculated as follows: [formula] Four dose levels were used to calculate the ED50. of each test compounds.

Row | Structure (SMILES) | ED50 [mg/kg]
12 | CN1OCCC(=Cc2cc(C(C)(C)C)c(O)c(C(C)(C)C)c2)C1=O [Example 2, Dihydro-4-(3,5-Di-tert-Butyl-4-Hydroxybenzylidene)-2-Methyl-2H-1,2-Oxazin-3(4H)-one] | 2.8
13 | CN1OC/C(=C\c2cc(C(C)(C)C)c(O)c(C(C)(C)C)c2)C1=O [Example 1 (E-Isomer), 4-(3,5-di-tert-butyl-4-hydroxybenzylidene)-2-methyl-3-isoxazolidinone] | 18
14 | COc1ccc2cc([C@H](C)C(=O)O)ccc2c1 [NAPROXEN, reference compound] | 6.2

Tested on: hind paw edema
Test: Adjuvant Arthritis Assay; Immunomodulatory
Type: in vivo, Lewis female rats
Conditions: 50 mg/kg oral, Day 5 to 9 inclusive; edema on Day 15
Description: Immunomodulatory: This activity was determined by using a Modified Adjuvant Assay procedure in which female rats were injected with Mycobacterium butyricum to induce hind paw edema. The test compounds were administered orally and the difference in volume between dosed and non-dosed paws was determined.
Lewis female rats were injected in the tail subcutaneously with Mycobacterium butyricum (0.75 mg in 0.1 ml light mineral oil, Fisher) on Day Zero. Prior to injection the volumes of the left and right rear paws were measured by mercury displacement. All rats were dosed orally with vehicle or test compounds on Day 5 to 9 inclusive. The volume of both hind paws were determined on Day 15 and the percent inhibitions were calculated based upon average edema on Day 15 relative to the edema mean in the control group.

Row | Structure (SMILES) | % Inhibition [%]
15 | CN1OCC(=Cc2cc(C(C)(C)C)c(O)c(C(C)(C)C)c2)C1=O [Example 1, 4-(3,5-Di-tert-Butyl-4-Hydroxybenzylidene)-2-Methyl-3-Isoxazolidinone; E and Z Isomers] | 43
16 | CN1OCCC(=Cc2cc(C(C)(C)C)c(O)c(C(C)(C)C)c2)C1=O [Example 2, Dihydro-4-(3,5-Di-tert-Butyl-4-Hydroxybenzylidene)-2-Methyl-2H-1,2-Oxazin-3(4H)-one] | 39

Tested on: not listed separately
Test: LD50
Conditions: rat, in vivo, po

Row | Structure (SMILES) | LD50 [mg/kg]
17 | CN1OCC(=Cc2cc(C(C)(C)C)c(O)c(C(C)(C)C)c2)C1=O [Example 1, 4-(3,5-Di-tert-Butyl-4-Hydroxybenzylidene)-2-Methyl-3-Isoxazolidinone; E and Z Isomers] | > 1000
18 | CN1OCCC(=Cc2cc(C(C)(C)C)c(O)c(C(C)(C)C)c2)C1=O [Example 2, Dihydro-4-(3,5-Di-tert-Butyl-4-Hydroxybenzylidene)-2-Methyl-2H-1,2-Oxazin-3(4H)-one] | > 1000

Tested on: hind paw edema
Test: Adjuvant Arthritis Assay; Developing (percent inhibition of hind paw edema)
Type: in vivo, female Lewis rats
Conditions: Rattus norvegicus, 96 h, once daily for 4 days in 0.25% methylcellulose, paw volumes on fifth day
Description: Anti-Inflammatory: This activity was evaluated via a modification of the Adjuvant Arthritis Assay (AA) described by S. Wong et al in "The Journal of Pharmacology and Experimental Therapeutics", Vol. 185. […] This assay measures the ability of the test compound to antogonize local edema, a characteristic of the inflammatory response. […] The left and right rear paws of female Lewis rats (Charles River Laboratories) weighing 160-180 grams each were measured by mercury displacement prior to injection (Day Zero). Adjuvant arthritis was induced in this rat colony by subcutaneous injection of Mycobacterium butyricum (0.75 mg in 0.1 ml light mineral oil, Fisher) using an automated Cornwall syringe. On days 11-15 post-adjuvant the injected animals with 0.25 to 0.75 ml. paw edema were selected and distributed evenly, according to edema size, into control and experimental groups of ten rats each. Vehicle control and drug treatments were assigned to the groups at random. The assay was performed using a variable dose level for each test compound per kilogram per day in 0.25% methylcellulose. vehicle. All animals were dosed once daily for 4 days and on the fifth day both hind paw volumes were again measured using mercury displacement. The hind paw edema was determined for each rat by subtracting the hind paw volume measured on Day Zero from the hind paw volume measured on the fifth day of the study. Group means were determined and the drug effect was calculated as percent inhibition of the hind paw edema according to the following equation: [formula] […] The known anti-inflammatory NAPROXEN was also tested for comparison purposes.

Row | Structure (SMILES) | ED50 [mg/kg]
19 | CN1OCCC(=Cc2cc(C(C)(C)C)c(O)c(C(C)(C)C)c2)C1=O [Example 2, Dihydro-4-(3,5-Di-tert-Butyl-4-Hydroxybenzylidene)-2-Methyl-2H-1,2-Oxazin-3(4H)-one] | 7
20 | CN1OC/C(=C/c2cc(C(C)(C)C)c(O)c(C(C)(C)C)c2)C1=O [Example 1 (Z-Isomer), 4-(3,5-di-tert-butyl-4-hydroxybenzylidene)-2-methyl-3-isoxazolidinone] | 36
21 | CN1OC/C(=C\c2cc(C(C)(C)C)c(O)c(C(C)(C)C)c2)C1=O [Example 1 (E-Isomer), 4-(3,5-di-tert-butyl-4-hydroxybenzylidene)-2-methyl-3-isoxazolidinone] | 20
22 | COc1ccc2cc([C@H](C)C(=O)O)ccc2c1 [NAPROXEN, reference compound] | 28

Tested on: yeast-induced fever
Test: Antipyretic Evaluation (yeast-induced fever)
Type: in vivo, male Sprague-Dawley rats
Conditions: 300 mg/kg oral; Example 1 in olive oil, Example 2 in 0.25% methylcellulose; all decreases significant at p <0.05 (paired-samples Student's t-Test)
Description: Antipyretic: This activity was evaluated by creating a yeast-induced fever in rats according to a modified method of the procedure described by Loux e al in "Toxicology and Applied Pharmacology", Vol. 22: page 672 (1972). In this assay rats injected with yeast in distilled water were dosed with test compounds, aspirin (positive control) and a vehicle (negative control) and the observed differences in body temperature were analyzed statistically.
Antipyretic activity was evaluated using a modification of the test described by Loux et al, in Toxicology and Applied Pharmacology, 22:672(1972), that is, yeast-induced fever in rats. Each test group consisted of ten male Sprague-Dawley rats (Charles River Laboratories), weighing 180-225 grams each. Eighteen hours prior to compound administration the rats were weighed and body temperatures were recorded. Food was removed with water available ad libitum.
Each animal was injected subcutaneously into the central dorsal region with five (5.0) ml portions of a 15% (150 mg/1.0 ml) suspension of Fleischman's yeast in distilled water.
Test compounds suspended in 0.25% methylcellulose (0.25% MC) or olive oil were administered orally by gavage nineteen hours following the yeast injection. Body temperatures were taken and recorded one hour after compound administration. Aspirin (300 mg/kg) was the reference standard drug administered with each antipyretic study. The mean temperature of the compound-treated groups, positive control group (Aspirin) and negative control group (vehicle) were calculated at 18 hours and 20 hours. The data was analyzed statistically using a paired-samples Student's t-Test.

Row | Structure (SMILES) | Change in Temperature, 18-20 Hour Period [°C]
23 | CN1OCC(=Cc2cc(C(C)(C)C)c(O)c(C(C)(C)C)c2)C1=O [Example 1, 4-(3,5-Di-tert-Butyl-4-Hydroxybenzylidene)-2-Methyl-3-Isoxazolidinone; E and Z Isomers] | -1.33
24 | CN1OCCC(=Cc2cc(C(C)(C)C)c(O)c(C(C)(C)C)c2)C1=O [Example 2, Dihydro-4-(3,5-Di-tert-Butyl-4-Hydroxybenzylidene)-2-Methyl-2H-1,2-Oxazin-3(4H)-one] | -1.33
25 | CC(=O)Oc1ccccc1C(=O)O [Aspirin, reference compound] | -2.05
